Experimental data taken from patent publication US8557875B2, “Gene transfer agent composition containing polyamidoamine dendron” (Public University Corporation Osaka Prefecture University, priority 2009, dated 2013).

Experiments:
NHDF-ad cells [1] = experiment: GFP expression after gene transfer with lipoplexes (Example 4); assay type: cell-based, human; conditions: GFP-expression plasmid
Procedure: A solvent was removed from each of chloroform solutions (1 mg/ml) of polyamidoamine dendrons (DL-G1 and DL-G1-U2) using a rotary evaporator to form 111.5 μg of lipid thin films. The thin films were dried in vacuo for 2 hours. Then, […] of phosphate buffered saline (PBS) were added. The mixtures were further sonicated for 2 minutes using a bath-type ultrasonicator to give 160 μl of lipid dispersion liquids. In addition, a solution (20 μg/ml, 160 μl) prepared by dissolving plasmid DNA in a 20 mM Tris-HCl buffer was added to each of the lipid dispersion liquids so as to obtain different N/P ratios. Then, the liquids were incubated at room temperature for 30 minutes to obtain lipoplexes.
pEGFP-C1 expressing a green fluorescent protein was used as a gene transfer plasmid, and NHDF-ad cells were used as target cells. Lipoplexes were prepared using, individually, DL-U2 and DL-G1. Then, gene transfer was performed.
NHDF-ad cells were seeded in a 24-well plate.
(NHDF-ad cells: 2.5×10^4 cells/well·DMEM+10% FBS (Pe/St) 500 μl)
(i) A 20 mM Tris-HCl (pH 7.4) buffer was dispensed into two tubes at, individually, 56.3 μl (for NP ratio=3) and 37.5 μl (for NP ratio=6).
(ii) 1.0 μg of plasmid DNA (pCAG-GFP) was added to each of the two tubes prepared in step (i) at 2 μl (1.0 μg), and the contents were stirred. […]

NHDF-ad cells [2] = experiment: Flow cytometry of GFP fluorescence in treated cells; assay type: cell-based, human
HeLa-S3 [3] = experiment: Gene transfer (GFP expression, luciferase activity) versus commercial agents (Example 5); assay type: cell-based; conditions: HeLa-S3 adherent cells; compared with Lipofectamine LTX and FuGENE HD
Procedure: (§1) pEGFP-C1 expressing a green fluorescent protein was used as a gene transfer plasmid; and adherent cells COS-7 and Hela-S3, and non-adherent cells K562, which were established cell lines, were used as target cells. Lipoplexes were individually prepared using DL-U2. Then, gene transfer was performed.
(HeLa—S3 cells: 3×10^4 cells/well·DMEM+10% FBS (Pe/St) 500 μl)
(§2) (i) A 20 mM Tris-HCl (pH 7.4) buffer was dispensed into three tubes at 35.5 μl (for NP ratio=6) for each of two tubes, and 23 μl (for NP ratio=8) for the remaining tube.
(§3) (ii) 1.0 μg of plasmid DNA (pCAG-GFP) was added to each of the three tubes prepared in step (i) at 2 μl (1.0 μg), and the contents were stirred.
(§4) (iii) A DL-U2 liposome solution was added to the three tubes prepared in step (ii) at 37.5 μl (N/P ratio=6) for each of two tubes, and 50 μl (N/P ratio=8) for the remaining tube.
(§5) (iv) 25 μl of an Opti-MEM (registered trademark) I Reduced-Serum Medium was further added, and the whole was thoroughly mixed and allowed to stand at room temperature for 5 minutes.
100 μl of the DL-plasmid DNA complex solution (N/P ratio=6) was added and mixed with the HeLa—S3 cells. […]
(§6) (vii) 48 hours later, luciferase activity was measured according to the protocol of the luciferase assay system (Promega, E1501) (relative values based on the activity of LTX defined as 1 were graphed).

K562 = experiment: as above; assay type: cell-based; conditions: K562 non-adherent cells; compared with Lipofectamine LTX and FuGENE HD
Procedure: as §1, §2, §3, §4, §5
50 μl of the DL-plasmid DNA complex solution (N/P ratio=8) was added and mixed with the K562 cells. […]
as §6

COS-7 = experiment: Cytotoxic evaluation on gene transfer (Example 5); assay type: cell-based; conditions: compared with Lipofectamine LTX and FuGENE HD
HeLa-S3 [4] = experiment: Cytotoxic evaluation on gene transfer (Example 5); assay type: cell-based; conditions: compared with Lipofectamine LTX and FuGENE HD
NHDF-ad cells [5] = experiment: Multiple gene transfer, GFP expression (Example 7); assay type: cell-based, human; conditions: transfer on Day 1, 3, 5, observed Day 7
Procedure: pEGFP-C1 expressing a green fluorescent protein was used as a gene transfer plasmid, and NHDF-ad cells, which were normal […] cells derived from adult humans also used for production of iPS cells, were used as target cells. Lipoplexes were individually prepared using DL-U2. Then, gene transfer was performed multiple times.
(NHDF-ad cells: 2×10^4 cells/well·DMEM+10% FBS (Pe/St) 500 μl)
(i) A 20 mM Tris-HCl (pH 7.4) buffer was dispensed into tubes at 71 μl (for NP ratio=6).
(ii) 2.0 μg of plasmid DNA (pCAG-GFP) were added to each of the two tubes prepared in step (i) at 4 μl (2.0 μg), and the contents were stirred.
(iii) To the prepared plasmid DNA solution was added 75 μl of a DL-U2 liposome solution (N/P ratio=6), and the whole was thoroughly mixed using a vortex and incubated at room temperature for 30 minutes.
(iv) 50 μl of an Opti-MEM(R) I Reduced-Serum Medium was further added, and the whole was thoroughly mixed and allowed to stand at room temperature for 5 minutes.
(v) 100 μl per well of the DL-plasmid DNA complex solutions was individually added to one well, and the contents were mixed by shaking the plate so as to be homogeneous.
(vi) The cells were incubated at 37° C. in 5% CO2 for 4 hours, and the growth medium was replaced.
For the cells subjected to gene transfer operations on Day 1, the same gene transfer was performed on Day 3 and Day 5 as well.

gene transfer activity (HeLa-S3 [3]): excellent gene transfer activity
gene transfer activity (K562): excellent gene transfer activity
SMILES: CCCCCCCC/C=C\CCCCCCCCN(CCCCCCCC/C=C\CCCCCCCC)CCC(=O)NCCN(CCC(=O)NCCN)CCC(=O)NCCN (racemic) [DL-G1-U2]
gene transfer into NHDF-ad cells (NHDF-ad cells [1]): allowed the gene to be transferred
fluorescence intensity of GFP expressed in the cells compared with DL-G1 (NHDF-ad cells [2]): about ten times higher
cytotoxicity (COS-7): lower cytotoxicity
cytotoxicity (HeLa-S3 [4]): lower cytotoxicity
gene transfer activity / gene expression after multiple gene transfer (NHDF-ad cells [5]): allowed the gene to be expressed most efficiently
